Common to all, as to type: biochemical
In assay [1] the target is T1, Factor XIa (Homo sapiens, UniProt P03951). In words: Kinetic parameters of the peptide substrate 5Fam-KLTRAETV-K5Tamra with FXIa (substrate inhibition model). From the text:
A fluorescence intensity (FLINT) based assay was used to monitor inhibition of Factor XIa. The peptide substrate, 5Fam-KLTRAETV-K5Tamra (purchased from New England Peptide) was chosen based on the FXI sequence. Conversion of zymogen FXI to its activated form, FXIa, occurs by proteolytic cleavage by […] at two sites, Arg146 and Arg180. The custom peptide used in this assay was based on the Arg146 cleavage site of FXI. The peptide substrate was designed with a fluorophore-quencher pair, where the fluorescence is quenched until FXIa cleaves the 8-mer peptide after the Arg residue.

Assay [2] deals with T1, Factor XIa. Kind of assay: Factor XIa inhibition assay utilizing a fluorophore-quencher pair peptide substrate (FLINT). Particulars: for Ki: read-out: FXIa Ki; for IC50: read-out: FXIa IC50. In outline: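 Enzyme preincubated 30 min at room temperature with compound (11-point 3-fold dilution, top 100 nM, 2% DMSO), then 15 μM 5Fam-KLTRAETV-K5Tamra substrate added. Buffer: 50 mM Tris pH 7.5, 100 mM NaCl, 5 mM CaCl2, 0.1 mg/mL BSA, 0.03% CHAPS. Fluorescence (485/520 nm) read kinetically over 30 min; IC50 from 4-parameter logistic fit.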

For assay [3], the target named is T2, human plasma kallikrein (Homo sapiens, UniProt P03952). In words: Kallikrein inhibition assay utilizing a quenched AMC peptide substrate (FLINT). Particulars: 30 min preincubation, 50 μM Z-Gly-Pro-Arg-AMC, 2 nM kallikrein. In outline: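 Human plasma kallikrein (2 nM final) was preincubated 30 min at room temperature with compound (11-point 3-fold dilution, top 1 μM, 2% DMSO) in pH 7.5 Tris buffer with CaCl2, BSA and CHAPS. Z-Gly-Pro-Arg-AMC (50 μM final) fluorescence was read at 340/440 nm every 5 min for 30 min. IC50 came from a 4-parameter logistic fit.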

For assay [4], the target named is T2, human plasma kallikrein. In words: Kinetic parameters of the substrate Z-Gly-Pro-Arg-AMC with kallikrein (Michaelis-Menten fit). From the text:
A fluorescence intensity (FLINT) based assay was used to monitor inhibition of human plasma kallikrein. The peptide substrate, Z-Gly-Pro-Arg-AMC (Purchased from Bachem; Catalog #1-1150) was chosen based on its relatively low KM for kallikrein which enables running the assay at lower substrate concentrations to control background fluorescence.

[5] abbreviates: cells that print μM themselves in the nM column.
The mark [6] stands for this setting: cells that print μM themselves in the nM column, same assay conditions.
Setting [7] is: 30 min preincubation, 5Fam-KLTRAETV-K5Tamra substrate 15 μM final, kinetic reads.

Read-outs that look alike come from different tables or passages of the source. Peptide text beside a SMILES is read from it. * marks the point of attachment. 5FAM = O=C1OC2(c3ccc(O)cc3Oc3cc(O)ccc32)c2ccc(C(=O)*)cc21; AMC = Cc1cc(=O)oc2cc(N*)ccc12; Cbz = O=C(OCc1ccccc1)* Bounds are passed on as bounds.

T1 sequence (P03951 388-625 limits assumed): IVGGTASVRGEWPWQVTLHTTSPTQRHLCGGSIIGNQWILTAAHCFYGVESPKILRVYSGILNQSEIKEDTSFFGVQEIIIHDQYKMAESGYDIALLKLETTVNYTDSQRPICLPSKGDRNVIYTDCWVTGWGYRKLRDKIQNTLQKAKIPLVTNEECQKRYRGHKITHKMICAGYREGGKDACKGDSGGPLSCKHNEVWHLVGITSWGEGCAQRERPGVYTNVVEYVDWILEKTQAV
T1 sequence (P03951 19-387 partner limits assumed): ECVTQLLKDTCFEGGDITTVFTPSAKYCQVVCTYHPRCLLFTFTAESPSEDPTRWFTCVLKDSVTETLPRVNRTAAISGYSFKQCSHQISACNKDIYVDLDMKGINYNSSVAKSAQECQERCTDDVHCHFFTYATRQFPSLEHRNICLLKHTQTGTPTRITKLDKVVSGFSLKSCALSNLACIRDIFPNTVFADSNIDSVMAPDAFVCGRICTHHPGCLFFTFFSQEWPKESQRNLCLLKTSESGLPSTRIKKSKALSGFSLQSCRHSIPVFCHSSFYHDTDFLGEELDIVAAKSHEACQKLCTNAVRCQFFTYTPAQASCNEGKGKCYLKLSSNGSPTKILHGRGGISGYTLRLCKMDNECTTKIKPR
T2 sequence (P03952 391-638 limits assumed): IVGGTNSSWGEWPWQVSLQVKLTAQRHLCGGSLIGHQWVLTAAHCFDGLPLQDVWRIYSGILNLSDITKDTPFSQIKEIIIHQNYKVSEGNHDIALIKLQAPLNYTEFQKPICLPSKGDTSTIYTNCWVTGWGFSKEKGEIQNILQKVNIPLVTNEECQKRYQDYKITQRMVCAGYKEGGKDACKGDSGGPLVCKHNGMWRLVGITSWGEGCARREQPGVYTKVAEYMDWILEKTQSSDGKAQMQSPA
T2 sequence (P03952 20-390 partner limits assumed): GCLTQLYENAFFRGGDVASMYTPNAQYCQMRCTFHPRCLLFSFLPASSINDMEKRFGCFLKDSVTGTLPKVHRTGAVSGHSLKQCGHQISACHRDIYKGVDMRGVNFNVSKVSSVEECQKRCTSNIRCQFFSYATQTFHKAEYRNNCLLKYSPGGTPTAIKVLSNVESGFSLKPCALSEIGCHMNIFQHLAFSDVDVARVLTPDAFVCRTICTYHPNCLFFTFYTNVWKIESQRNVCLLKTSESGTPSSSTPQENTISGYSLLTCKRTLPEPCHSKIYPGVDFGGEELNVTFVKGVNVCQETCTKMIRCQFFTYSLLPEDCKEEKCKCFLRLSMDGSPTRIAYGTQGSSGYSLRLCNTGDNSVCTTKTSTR

Broadly, the Km is the substrate concentration at which the rate is half of its maximum. By kcat is commonly meant the number of substrate molecules converted per active site and unit of time at saturation. For the molecule “5Fam-KLTRAETV-K5Tamra (5FAM-KLTRAETV-{K(5-TAMRA)}) [fluorophore-quencher pair peptide substrate based on the Arg146 cleavage site of FXI, purchased from New England Peptide]”, in the assay with Factor XIa [1] (substrate inhibition constant), the Ki was determined as 61600 nM. In addition, in the assay with Factor XIa [1] (substrate with FXIa), the Michaelis constant (Km) came to 12.4 µM and the turnover number (kcat) is 0.86 s⁻¹.

The term IC50 denotes the concentration at which inhibition is half-maximal. Consider `Cn1nncc1-c1cnc([C@@H]2CCc3c4c(cc(=O)n32)-c2c(ccc(Cl)c2F)CCNC4=O)[nH]1` (stereo in doubt) [Compound 44, (S*)-7-chloro-8-fluoro-12-(5-(1-methyl-1H-1,2,3-triazol-5-yl)-1H-imidazol-2-yl)-3,4,13,14-tetrahydrobenzo[5,6]azocino[4,3-g]indolizine-1,10(2H,12H)-dione], for which the Ki at Factor XIa [2] (setting [5]) is more than 5 µM. For the same molecule, the IC50 on Factor XIa [2] (setting [6]) is more than 10 µM; against human plasma kallikrein [3] it was more than 10000 nM.

Turning to `Cn1nncc1-c1cnc([C@H]2CCc3c4c(cc(=O)n32)-c2c(ccc(Cl)c2F)CCNC4=O)[nH]1` (stereo in doubt) [Compound 45, (R*)-7-chloro-8-fluoro-12-(5-(1-methyl-1H-1,2,3-triazol-5-yl)-1H-imidazol-2-yl)-3,4,13,14-tetrahydrobenzo[5,6]azocino[4,3-g]indolizine-1,10(2H,12H)-dione], the Ki at Factor XIa [2] (setting [5]) was found to be 2.58 µM. The half-maximal inhibitory concentration (IC50) on Factor XIa [2] (setting [6]) was 5.15 µM; against human plasma kallikrein [3], more than 10000 nM.

Consider `Nc1ccc(-c2cnc([C@@H]3CCc4c5c(cc(=O)n43)-c3c(ccc(Cl)c3F)CCNC5=O)[nH]2)c(F)n1` (stereo in doubt) [Compound 46, (S*)-12-(5-(6-amino-2-fluoropyridin-3-yl)-1H-imidazol-2-yl)-7-chloro-8-fluoro-3,4,13,14-tetrahydrobenzo[5,6]azocino[4,3-g]indolizine-1,10(2H,12H)-dione], for which, on Factor XIa [2] (setting [5]), the Ki was found to be 4.57 µM. Also, the concentration for half-maximal inhibition (IC50) is 9.15 µM at Factor XIa [2] (setting [6]) and more than 10000 nM at human plasma kallikrein [3].

For `Nc1ccc(-c2cnc([C@H]3CCc4c5c(cc(=O)n43)-c3c(ccc(Cl)c3F)CCNC5=O)[nH]2)c(F)n1` (stereo in doubt) [Compound 47, (R*)-12-(5-(6-amino-2-fluoropyridin-3-yl)-1H-imidazol-2-yl)-7-chloro-8-fluoro-3,4,13,14-tetrahydrobenzo[5,6]azocino[4,3-g]indolizine-1,10(2H,12H)-dione], the IC50 on Factor XIa [2] (setting [7]) was found to be 0.005 µM; at human plasma kallikrein [3], 400 nM. The Ki at Factor XIa [2] turned out to be 0.0025 µM.

Consider `Nc1ccc(-c2cnc([C@H]3CCc4c5c(cc(=O)n43)-c3c(ccc(Cl)c3F)CCNC5=O)[nH]2)c(Cl)n1` (stereo in doubt) [Compound 48, (R*)-12-(5-(6-amino-2-chloropyridin-3-yl)-1H-imidazol-2-yl)-7-chloro-8-fluoro-3,4,13,14-tetrahydrobenzo[5,6]azocino[4,3-g]indolizine-1,10(2H,12H)-dione], for which the half-maximal inhibitory concentration (IC50) is 0.0023 µM on Factor XIa [2] (setting [7]) and 210 nM on human plasma kallikrein [3]. Moreover, the Ki at Factor XIa [2] is 0.0012 µM.

Regarding `Nc1ccc(-c2cnc([C@@H]3CCc4c5c(cc(=O)n43)-c3c(ccc(Cl)c3F)CCNC5=O)[nH]2)c(Cl)n1` (stereo in doubt) [Compound 49, (S*)-12-(5-(6-amino-2-chloropyridin-3-yl)-1H-imidazol-2-yl)-7-chloro-8-fluoro-3,4,13,14-tetrahydrobenzo[5,6]azocino[4,3-g]indolizine-1,10(2H,12H)-dione], on Factor XIa [2] (setting [5]), the Ki is 1.29 µM. Further, the results for the 50% inhibitory concentration (IC50) on Factor XIa [2] (setting [6]) and against human plasma kallikrein [3] were 2.59 µM and more than 10000 nM, respectively.

With `Cn1cncc1-c1cnc([C@@H]2CCc3c4c(cc(=O)n32)-c2c(ccc(Cl)c2F)CC2(CC2)NC4=O)[nH]1` (stereo in doubt) [Compound 50, (S*)-7-chloro-8-fluoro-12-(3′-methyl-3H,3′H-[4,4′-biimidazol]-2-yl)-13,14-dihydro-2H-spiro[benzo[5,6]azocino[4,3-g]indolizine-3,1′-cyclopropane]-1,10(4H,12H)-dione], the half-maximal inhibitory concentration (IC50) was 0.301 µM at Factor XIa [2] (setting [7]) and more than 20000 nM against human plasma kallikrein [3]. In addition, the Ki on Factor XIa [2] was 0.15 µM.

For the molecule `Cn1cncc1-c1cnc([C@H]2CCc3c4c(cc(=O)n32)-c2c(ccc(Cl)c2F)CC2(CC2)NC4=O)[nH]1` (stereo in doubt) [Compound 51, (R*)-7-chloro-8-fluoro-12-(3′-methyl-3H,3H′-[4,4′-biimidazol]-2-yl)-13,14-dihydro-2H-spiro[benzo[5,6]azocino[4,3-g]indolizine-3,1′-cyclopropane]-1,10(4H,12H)-dione], the Ki on Factor XIa [2] (setting [5]) is more than 5 µM. In addition, the IC50 on Factor XIa [2] (setting [6]) was more than 10 µM; on human plasma kallikrein [3] it was more than 10000 nM.

For `Nc1ccc(-c2cnc([C@H]3CCc4c5c(cc(=O)n43)-c3c(ccc(Cl)c3F)CC3(CC3)NC5=O)[nH]2)c(Cl)n1` (stereo in doubt) [Compound 53, (R*)-12-(5-(6-amino-2-chloropyridin-3-yl)-1H-imidazol-2-yl)-7-chloro-8-fluoro-13,14-dihydro-2H-spiro[benzo[5,6]azocino[4,3-g]indolizine-3,1′-cyclopropane]-1,10(4H,12H)-dione], the figures for the half-maximal inhibitory concentration (IC50) on Factor XIa [2] (setting [7]) and against human plasma kallikrein [3] were 0.0959 µM and more than 10000 nM, respectively. Further, the Ki at Factor XIa [2] was determined as 0.0479 µM.

`Nc1ccc(-c2cnc([C@H]3CCc4c5c(cc(=O)n43)-c3c(ccc(Cl)c3F)CC3(CC3)NC5=O)[nH]2)c(F)n1` (stereo in doubt) [Compound 54, (R*)-12-(5-(6-amino-2-fluoropyridin-3-yl)-1H-imidazol-2-yl)-7-chloro-8-fluoro-13,14-dihydro-2H-spiro[benzo[5,6]azocino[4,3-g]indolizine-3,1′-cyclopropane]-1,10(4H,12H)-dione]: the half-maximal inhibitory concentration (IC50) is 0.224 µM at Factor XIa [2] (setting [7]) and more than 10000 nM at human plasma kallikrein [3]. In addition, the Ki on Factor XIa [2] is 0.112 µM.

With `Nc1ccc(-c2[nH]c(C3CCc4c5c(cc(=O)n43)-c3cc(Cl)ccc3CC3(CC3)NC5=O)nc2F)c(F)n1` (stereo not shown) [Compound 1, 12-(5-(6-amino-2-fluoropyridin-3-yl)-4-fluoro-1H-imidazol-2-yl)-7-chloro-13,14-dihydro-2H-spiro[benzo[5,6]azocino[4,3-g]indolizine-3,1′-cyclopropane]-1,10(4H,12H)-dione], the IC50 was 0.0015 µM at Factor XIa [2] (setting [7]) and 540 nM on human plasma kallikrein [3]. Also, the Ki on Factor XIa [2] was determined as 0.0008 µM.

Turning to `Nc1ccc(-c2cnc(C3CCc4c5c(cc(=O)n43)-c3cc(Cl)ccc3CC3(CC3)NC5=O)[nH]2)c(F)n1` (stereo not shown) [Compound 2, 12-(5-(6-amino-2-fluoropyridin-3-yl)-1H-imidazol-2-yl)-7-chloro-13,14-dihydro-2H-spiro[benzo[5,6]azocino[4,3-g]indolizine-3,1′-cyclopropane]-1,10(4H,12H)-dione], the 50% inhibitory concentration (IC50) at Factor XIa [2] (setting [7]) came out at 0.003 µM; on human plasma kallikrein [3], 470 nM. Moreover, the Ki at Factor XIa [2] was determined as 0.0015 µM.

For the molecule `O=C1NC2(CC2)Cc2ccc(Cl)c(F)c2-c2cc(=O)n3c(c21)CCC3c1ncc(-c2ccnc(CO)c2F)[nH]1` (stereo not shown) [Compound 3, 7-chloro-8-fluoro-12-(5-(3-fluoro-2-(hydroxymethyl)pyridin-4-yl)-1H-imidazol-2-yl)-13,14-dihydro-2H-spiro[benzo[5,6]azocino[4,3-g]indolizine-3,1′-cyclopropane]-1,10(4H,12H)-dione], the results for the half-inhibitory concentration (IC50) at Factor XIa [2] (setting [7]) and against human plasma kallikrein [3] were 0.0153 µM and 790 nM, respectively. Further, on Factor XIa [2], the Ki is 0.0076 µM.

As to `Nc1ccc(-c2cnc([C@@H]3CCc4c5c(cc(=O)n43)-c3c(ccc(Cl)c3F)CC3(CC3)NC5=O)[nH]2)c(Cl)n1` [Compound 52, (S)-12-(5-(6-amino-2-chloropyridin-3-yl)-1H-imidazol-2-yl)-7-chloro-8-fluoro-13,14-dihydro-2H-spiro[benzo[5,6]azocino[4,3-g]indolizine-3,1′-cyclopropane]-1,10(4H,12H)-dione], the IC50 at Factor XIa [2] (setting [7]) came out at 0.0002 µM; against human plasma kallikrein [3], 70 nM. Moreover, on Factor XIa [2], the Ki amounted to 0.0001 µM.

Consider `COC(=O)Nc1ccc(-c2cnc([C@H](CC3CC3)n3cc4c(cc3=O)-c3c(ccc(Cl)c3F)CC3(CC3)NC4=O)[nH]2)cc1` [Compound 61, Methyl (S)-(4-(2-(1-(11-chloro-12-fluoro-2,5-dioxo-2,5,6,8-tetrahydro-3H-spiro[benzo[e]pyrido[3,4-c]azocine-7,1′-cyclopropan]-3-yl)-2-cyclopropylethyl)-1H-imidazol-5-yl)phenyl)carbamate], for which the 50% inhibitory concentration (IC50) turned out to be 0.001 µM at Factor XIa [2] (setting [7]) and 120 nM on human plasma kallikrein [3]. The Ki on Factor XIa [2] came to 0.0005 µM.

Turning to `Cc1cc(=O)oc2cc(NC(=O)[C@H](CCCNC(=N)N)NC(=O)[C@@H]3CCCN3C(=O)CNC(=O)OCc3ccccc3)ccc12` [Z-Gly-Pro-Arg-AMC] (Cbz-Gly-Pro-Arg-{AMC}), the kcat at human plasma kallikrein [4] turned out to be 0.76 s⁻¹.

Values taken from patent US11897880B2, “7,8-dihydrobenzo[e]pyrido[3,4-c]azocine-2,5(3H,6H)-dione derivatives useful as a factor XIa inhibitors” (Janssen Pharmaceutica NV, priority 2021, dated 2024).
